Results as given in patent US12622915B2, “Methods of treating PDE IV-mediated diseases or conditions” (Vanda Pharmaceuticals Inc., priority 2020, dated 2026).

What was measured:
Phosphodiesterase PDE6 = target: T1, Phosphodiesterase PDE6 (Bos taurus, UniProt P11541+P23439); assay: Phosphodiesterase PDE6 enzyme assay; format: biochemical, bovine; conditions: N=2, Example 3
T1 construct: Source: Bovine retinal rod outer segments; from tissue; host or cells: bovine retinal rod outer segments
T1 sequence (P11541 2-856 limits assumed): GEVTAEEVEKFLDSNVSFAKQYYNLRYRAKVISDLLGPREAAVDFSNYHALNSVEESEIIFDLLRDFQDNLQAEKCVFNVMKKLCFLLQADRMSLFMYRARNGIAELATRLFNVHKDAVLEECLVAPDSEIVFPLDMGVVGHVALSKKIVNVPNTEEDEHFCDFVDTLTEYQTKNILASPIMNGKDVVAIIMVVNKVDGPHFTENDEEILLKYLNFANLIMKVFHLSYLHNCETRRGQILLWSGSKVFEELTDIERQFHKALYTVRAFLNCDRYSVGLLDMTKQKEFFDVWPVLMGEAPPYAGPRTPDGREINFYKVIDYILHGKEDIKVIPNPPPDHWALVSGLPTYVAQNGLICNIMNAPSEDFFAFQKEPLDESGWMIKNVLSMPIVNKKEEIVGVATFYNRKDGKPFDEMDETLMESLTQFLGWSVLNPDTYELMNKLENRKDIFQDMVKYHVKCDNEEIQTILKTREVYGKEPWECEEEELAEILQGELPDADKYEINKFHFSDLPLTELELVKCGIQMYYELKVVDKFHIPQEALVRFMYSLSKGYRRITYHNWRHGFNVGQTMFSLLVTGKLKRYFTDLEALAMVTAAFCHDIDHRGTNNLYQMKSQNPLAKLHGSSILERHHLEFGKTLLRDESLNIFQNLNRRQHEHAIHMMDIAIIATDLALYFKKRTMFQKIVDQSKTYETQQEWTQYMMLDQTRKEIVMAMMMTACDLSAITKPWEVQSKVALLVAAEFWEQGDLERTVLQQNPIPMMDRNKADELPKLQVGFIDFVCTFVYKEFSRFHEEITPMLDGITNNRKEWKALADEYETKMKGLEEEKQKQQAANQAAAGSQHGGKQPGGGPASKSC
T1 sequence (P23439 2-850 limits assumed): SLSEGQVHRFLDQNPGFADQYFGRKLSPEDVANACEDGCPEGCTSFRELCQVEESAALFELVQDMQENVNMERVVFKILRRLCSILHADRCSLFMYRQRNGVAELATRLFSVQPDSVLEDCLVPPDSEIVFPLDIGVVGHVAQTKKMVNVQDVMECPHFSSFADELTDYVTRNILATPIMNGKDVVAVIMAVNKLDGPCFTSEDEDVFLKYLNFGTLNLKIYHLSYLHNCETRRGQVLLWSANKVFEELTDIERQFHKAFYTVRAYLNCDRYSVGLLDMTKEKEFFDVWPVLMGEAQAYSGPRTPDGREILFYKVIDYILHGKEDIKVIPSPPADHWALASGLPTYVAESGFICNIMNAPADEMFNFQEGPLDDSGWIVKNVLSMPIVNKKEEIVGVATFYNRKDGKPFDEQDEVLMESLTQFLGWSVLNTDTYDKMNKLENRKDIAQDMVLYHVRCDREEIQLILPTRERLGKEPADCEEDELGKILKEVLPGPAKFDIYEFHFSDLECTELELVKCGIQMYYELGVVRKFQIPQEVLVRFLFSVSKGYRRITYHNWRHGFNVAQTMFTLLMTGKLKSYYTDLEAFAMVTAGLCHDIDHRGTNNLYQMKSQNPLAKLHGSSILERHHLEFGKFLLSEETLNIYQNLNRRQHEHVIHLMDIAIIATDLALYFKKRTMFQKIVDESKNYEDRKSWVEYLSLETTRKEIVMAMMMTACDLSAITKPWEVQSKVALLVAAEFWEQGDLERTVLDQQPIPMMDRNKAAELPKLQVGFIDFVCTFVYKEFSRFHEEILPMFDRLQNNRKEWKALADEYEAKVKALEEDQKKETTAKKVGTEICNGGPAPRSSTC
Text: (§1) Reference standards are run as an integral part of each assay to ensure the validity of the results obtained. Reference Compounds: • Phosphodiesterase PDE10A2 Papaverine • Phosphodiesterase PDE11A4 Dipyridamole • Phosphodiesterase PDE1A MMPX • Phosphodiesterase PDE2A EHNA • Phosphodiesterase PDE3A Cilostamide • Phosphodiesterase PDE4A1A Rolipram • Phosphodiesterase PDE4B1 Rolipram • Phosphodiesterase PDE5A Zaprinast • Phosphodiesterase PDE6 Zaprinast • Phosphodiesterase PDE7A IBMX • Phosphodiesterase PDE7B IBMX • Phosphodiesterase PDE8A1 Dipyridamole • Phosphodiesterase PDE9A2 Zaprinast
Phosphodiesterase PDE6: • Source: Bovine retinal rod outer segments • Substrate: 100 μM [^3H]cGMP+cGMP • Vehicle: 1.00% DMSO • Significance Crit.: ≥50% of max stimulation or inhibition • Incubation Buffer: 50 mM Tris-HCl, pH 7.5, 5 mM MgCl2 • Quantitation Method: Quantitation of [^3H]Guanosine • Pre-Incub. […]
IC50 values are determined by a non-linear, least squares regression analysis using MathIQ™ (ID Business Solutions Ltd., UK). Where inhibition constants (Ki) are presented, the Ki values are calculated using the equation of Cheng and Prusoff (Cheng, Y., Prusoff, W. H., Biochem. Pharmacol. 22:3099-3108, 1973) using the observed IC50 of the tested compound, the concentration of radioligand employed in the assay, and the historical values for the KD of the ligand. […]

Phosphodiesterase PDE7A = target: T2, Phosphodiesterase PDE7A (Homo sapiens, UniProt Q13946); assay: Phosphodiesterase PDE7A enzyme assay; format: biochemical; conditions: N=2, Example 3
T2 construct: host or cells: insect Sf9 cells
Text: as §1
Phosphodiesterase PDE4A1A; Phosphodiesterase PDE4B1; Phosphodiesterase PDE10A2; Phosphodiesterase PDE11A4; Phosphodiesterase PDE2A; Phosphodiesterase PDE3A; Phosphodiesterase PDE7A; Phosphodiesterase PDE7B; and Phosphodiesterase PDE8A1: • Source: Human recombinant insect Sf9 cells • Substrate: 0.10 μM FAM-cAMP • Vehicle: 1.00% DMSO • Significance Crit.: ≥50% of max stimulation or inhibition • Incubation Buffer: 10 mM Tris-HCl, pH 7.2, 10 mM MgCl2, 0.05% NaN3, 0.1% phosphate-free BSA • Quantitation Method: Quantitation of Fluorescein-AMP-IMAP • Pre-Incub. Time/Temp: 15 minutes @25° C. • Incubation Time/Temp: 30 minutes @25° C.
IC50 values are determined by a non-linear, least squares regression analysis using MathIQ™ (ID Business Solutions Ltd., UK). […]

T2 sequence (Q13946 whole entry): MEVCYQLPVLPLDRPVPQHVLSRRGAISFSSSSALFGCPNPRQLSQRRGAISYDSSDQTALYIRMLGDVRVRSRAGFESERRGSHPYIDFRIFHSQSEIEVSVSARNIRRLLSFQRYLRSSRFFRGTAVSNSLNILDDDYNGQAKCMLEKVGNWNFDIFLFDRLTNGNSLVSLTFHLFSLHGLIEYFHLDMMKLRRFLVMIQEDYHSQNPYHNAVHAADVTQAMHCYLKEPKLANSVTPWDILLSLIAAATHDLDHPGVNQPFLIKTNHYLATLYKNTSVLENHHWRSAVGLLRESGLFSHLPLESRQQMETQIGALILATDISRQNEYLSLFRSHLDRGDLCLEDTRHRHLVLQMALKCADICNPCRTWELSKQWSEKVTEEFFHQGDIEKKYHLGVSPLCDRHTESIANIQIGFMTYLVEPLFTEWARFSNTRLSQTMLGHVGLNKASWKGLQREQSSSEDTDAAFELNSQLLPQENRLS

inhibition at 10 µM (Phosphodiesterase PDE6): 8%
inhibition at 10 µM (Phosphodiesterase PDE7A): 7%
SMILES: CNc1nc(Nc2ccccc2)nc(OCC(F)(F)C(F)F)n1 [compound of Formula (I), N^2-methyl-N^4-phenyl-6-(2,2,3,3-tetrafluoropropoxy)-1,3,5-triazine-2,4-diamine]
